From patent US20240343762A1, “USE OF PROTON PUMP MODULATOR IN PREPARING REAGENT” (SHANGHAI QUIETD BIOTECHNOLOGY CO. LTD., priority 2021, published 2024)

Tests used:
[1] = tested on: hippocampal CA1 pyramidal neurons; assay: Whole-cell patch-clamp recording of spontaneous excitatory postsynaptic current (sEPSC) in hippocampus brain slice; format: cell-based, mouse; details: sEPSC at -70 mV, perfusion for 5 min; 5 μM in Embodiment 3
Method: 0.1-0.15 ml of 20% ethyl carbamate was injected into the abdominal cavity of a C57 mouse of 2 to 3 months old for anesthesia; a head was quickly cut, and brain tissues were stripped and put into artificial cerebrospinal fluid (ACSF) ice-water mixed liquid into which mixed gas (95% O2 and 5% CO2) was introduced in advance, and stood for 2 min; the ACSF included the following components: […] of NaCl, […] of KCl, 0.12 mM of NaH2PO4, 0.25 mM of CaCl2), 0.12 mM of MgCl2, 25 mM of NaHCO3 and 11 mM of glucose. A hippocampus coronal brain slice of 350 μm was cut by a vibration slicer. The hippocampus coronal brain slice was placed into the ACSF at room temperature for more than 30 min for recovery, and then the brain slice was put into a record slot; continuous perfusing was performed at a speed of 2 to 2.5 ml/min by the ACSF into which the mixed gas was introduced; blind-binding sealing was performed on hippocampus CA1 pyramidal neuron under an Olympic BX51 upright microscope; whole-cell patch-clamp was performed by an Axon700B amplifier and a 1550B digital-to-analog converter; spontaneous excitatory postsynaptic current (sEPSC) of the pyramidal neuron was recorded by a voltage clamp under the clamp voltage of −70 mV; after recording for 5 min, synthetic polypeptides such as 5 μM QD202 or QD202 N′-1, C′-1 and C′-2 for 5 min; and then perfusing and flushing were performed for 10 min by the ACSF. The recorded data was analyzed by Minianalysis software. […]

[2] = tested on: SH-SY5Y cells; assay: Rotenone cell model (PD) with immunoblotting of α-synuclein oligomer; format: cell-based; details: 5 μM rotenone, QD202 at 0.1 μM, 0.2 μM, 0.5 μM and 1 μM, 24 hours
Method: The rotenone cell model is a commonly used Parkinson's disease (PD) in vitro cell model.
SH-SY5Y cells are cultured in complete medium composed of high-glucose DMEM and 10% fetal bovine serum, placed in an incubator maintained at 37° C. and 5% carbon dioxide for culture. On the day before the rotenone model is established, cells are passaged from 60 mm dishes to 6-well plates, and QD202 treatment experiments are conducted 24 hours after cell passage.
After 24 hours of SH-SY5Y culture, the rotenone model is established. A mixed solution containing 5 μM rotenone and various concentrations of QD202 (0, 0.1 μM, 0.2 μM, 0.5 μM, 1 μM, 5 μM, 10 μM) is prepared with complete medium. SH-SY5Y cells are removed from the culture medium, the mixed solution is added and mixed well, and incubated in the incubator for 24 hours.
After 24 hours of QD202 treatment, the cells are placed on ice, and 200 μL of cell lysis buffer containing protease inhibitors (25 mM Tris-HCL, 150 mM NaCl, 1 mM EDTA, 1% NP40, 5% Glycerol) is added. The cells are collected into the lysis buffer and the collected samples are rotated and lysed at 4° C. for 30 minutes.
The samples are centrifuged at 4° C. for 10 minutes, and the supernatant is collected. 180 μL of the supernatant is retained and 60 μL of 4×loading buffer is added. […]

QD202: polypeptide synthesized according to the amino acid sequence as set forth in SEQ ID NO. 1 (YGRKKRRQRRRSPVDVVCS; QD202)
excitatory postsynaptic current amplitude [1]: no influence
release frequency of excitatory postsynaptic current [1]: increasing the release frequency
spontaneous excitatory synaptic transmitter release of hippocampal CA1 neurons [1]: can increase the spontaneous excitatory synaptic transmitter release
increase in α-synuclein oligomer caused by rotenone treatment [2]: dose-dependently reduce
